Measured values from patent US20230390273A1, “4-PHENYL-TETRAHYDROPYRIDINE DERIVATIVES FOR TREATING HEARING DISEASES” (CILCARE DEV, priority 2021, published 2023).
Where a name gives a salt, the structure may show the parent alone.

What was measured:
[1] = tested on: synaptic ribbons in inner hair cells; test: Ribbon synapse immunostaining and counting in cochlea, immediate treatment (Example 6); type: in vivo, male Wistar rats; details: 2 hours and 8 days post-noise; for Number of pre-synaptic elements CtBP2 per IHC: 25 kHz and 32 kHz; for Number of pre-synaptic elements CtBP2 per IHC / Number of colocalized ribbons per IHC: vs traumatized vehicle group; for Number of colocalized ribbons per IHC: 25 kHz, paliroden 300 μg/ear, xaliproden 150 μg/ear; for Synapse loss in the inner hair cells: regions coding high frequency sounds
Procedure: At T+28DAYS, after DPOAE/ABR measures, 10 cochleae (all eight (8) left cochleae and two (2) right cochleae taken randomly) per group were rapidly sampled and immediately fixed by PFA perfusion (through the round and oval windows with PFA 4% after creating a small hole at the apex) in order to performed ribbon synapse immunostaining and analysis. Cochleae were fixed for 1 hour in a 4% PFA solution and decalcified in undiluted RDO (10 mL/cochlea for a minimum of 2 hours). The membranous and sensory spiral containing the organ of Corti are dissected out as a flat surface preparation under a dissecting microscope and immunolabelled with appropriate antibodies: • Vglut3 (Vglut3-Guinea Pig IgG; #135 204, Synaptic systems and Anti-Guinea Pig IgG (H+L), #A21450; Thermo Fisher Scientific 647 nm Far-Red) to stain inner hair cell bodies (vesicular glutamate transporter). • Homer (Homer-Rabbit IgG; #GTX103278; Genetex and Anti-Rabbit IgG (H+L) #A11008 Thermo Fisher Scientific 568 nm Red) to stain dendritic proteins of auditory nerve fibers connecting to IHC (post-synaptic). • CtBP2 (CtBP2-Mouse-IgG1; #612044; BD Transduction Laboratories and Anti-Mouse IgG1, #A21121, Thermo Fisher Scientific 488 Green) to stain the ribeye protein as pre-synaptic marker in IHC. • Phalloidin (Alexa Fluor™ Plus 405 Phalloidin; #A30104; Thermo Fisher Scientific 405 Blue).
Images were acquired on a confocal microscope and the slides were analyzed to i) evaluate by visual observation the presence of OHC (outer hair cells) and IHC (inner hair cells) (based on nuclei staining with CtBP2 and HC cell body staining with phalloidin) and ii) count the number of synaptic ribbons in selected inner hair cells in cochlea regions coding sound of selected frequency (16 kHz, 25 kHz and 32 kHz).
The number of pre- (CtBP2) and post-synaptic (Homer) labeled spots was counted using Imaris software in 3 dimensions for each image. Co-localization of pre- and post-synaptic elements was defined as a distance of maximum […] between CtBP2- and Homer-labeled spots, using an in-house Matlab program to calculate the distances between CtBP2 and Homer labels from the x, y, and z coordinates.

male Wistar rats = test: ABR/DPOAE assessment, noise-induced permanent hearing loss, immediate trans-tympanic treatment (Example 6); type: in vivo; details: T0+28 days, versus traumatized animals untreated or vehicle; treatment 2 hours and 8 days post-noise
Procedure: Fifty male Wistar rats were selected and distributed to treatment (“traumatized paliroden” group and “traumatized xaliproden” group) and control groups (“sham” group, “traumatized” group and “traumatized vehicle” group), each group comprising at least 9 rats at the end of the study. Randomization was performed using the ABR threshold in the left ear at 16 kHz as a criterium. The “sham” group consists in rats (n=11) that received neither noise exposure nor trans-tympanic injection. The “traumatized” group consists of rats (n=9) that received noise exposure only and no treatment. The “traumatized vehicle” group consists in rats (n=10) that received noise exposure and trans-tympanic injection in both ears of 30 μL of placebo (a composition comprising Poloxamer 407 (7,2% w/w), Poloxamer 188 (8% w/w) and Cremophor EL® (20% w/w) in phosphate buffer pH=7.4, the percentages being expressed relative to the total weight of the composition) between the eardrum and the round window by means of a needle which crosses the eardrum, 4 hours after the start of the noise exposure (i.e. injection of placebo at T0+4 hours, thus 2 hours after the end of the noise exposure) and 8 days post-noise exposure, under isoflurane anesthesia. […]

Structure (SMILES)	Number of pre-synaptic elements CtBP2 per IHC [1]	Number of colocalized ribbons per IHC [1]	Synapse loss in the inner hair cells [1]	Effect on ABR thresholds, DPOAE amplitudes, ABR Wave I amplitudes (male Wistar rats)
FC(F)(F)c1cccc(C2=CCN(CCc3ccc(-c4ccccc4)cc3)CC2)c1 [paliroden (fumarate salt), 1-[2-(4-biphenylyl)ethyl]-4-(3-trifluoromethylphenyl)-1,2,3,6-tetrahydropyridine]	increase	increase	tend to repair synapse loss	did not show effect
FC(F)(F)c1cccc(C2=CCN(CCc3ccc4ccccc4c3)CC2)c1 [xaliproden (hydrochloride salt), 1-[2-(2-naphthyl)ethyl]-4-(3-trifluoromethylphenyl)-1,2,3,6-tetrahydropyridine]	increase	increase	tend to repair synapse loss	did not show effect
